# Columns and labels:
# HIV-1 RT = target: T1, HIV-1 RT (Human immunodeficiency virus type 1 group M subtype B, UniProt P04585); assay: HIV-1 reverse transcriptase assay; type: biochemical
# T1 construct: HSV-1 DNA Polymerase and HIV-1 Reverse Transcriptase Assay
# Experimental: (§1) The reaction mixture (40 μl) for the HSV-1 DNA polymerase and HIV-1 RT assays contained 4 μl Premix (200 mM Tris.HCl, pH 7.5; 2 mM DTT; 30 mM MgCl2), 4 μl BSA (5 mg/ml), 1.6 μl activated calf thymus DNA (1.25 mg/ml), 0.8 μl dCTP (5 mM), 0.8 μl dTTP (5 mM), 0.8 μl dGTP (5 mM), 2 μl radiolabeled [^3H]dATP (1 mCi/ml) (3.3 μM), 18 μl H2O and 4 μl tenofovir-DP at different concentrations (i.e. 200, 20, 2, 0.2 μM). The reaction was started by the addition of 4 μl recombinant HSV-1 DNA polymerase (kindly provided by M. W. Wathen (Pfizer, Kalamazoo, Mich.)) or recombinant HIV-1 RT (in 20 mM Tris.HCl, pH 8.0; 1 mM DTT; 0.1 mM EDTA; 0.2 M NaCl; 40% glycerol), and the reaction mixture was incubated for 60 min (HSV-1 DNA polymerase) or 30 min (HIV-1 RT) at 37° C. Then, 1 ml ice-cold 5% TCA in 0.02 M Na4P2O7.10H2O was added to terminate the polymerisation reaction, after which the acid-insoluble precipitate (radiolabeled DNA) was captured onto Whatman glass fiber filters type GF/C (GE Healthcare UK Limited, Buckinghamshire, UK) and further washed with 5% TCA and ethanol to remove free radiolabeled dATP. Radioactivity was determined in a Perkin Elmer Tri-Carb 2810 TR liquid scintillation counter.
# HSV-1 DNA polymerase = target: T2, HSV-1 DNA polymerase (Human herpesvirus 1, UniProt P04293); assay: HSV-1 DNA polymerase assay; type: biochemical; details: activated calf thymus DNA primer/template; [2,8-3H]dATP competing substrate
# T2 construct: gift of M. W. Wathen (Pfizer, Kalamazoo, Mich.)
# Experimental: as §1
# HSV-2 = assay: Herpes virus infection of primary monocyte/macrophage (M/M) cell cultures; type: cell-based
# Experimental: Human peripheral blood mononuclear cells (PBMCs) were obtained from the blood of healthy seronegative donors by Ficoll-Hypaque density gradient centrifugation. […] Monocyte/macrophage (M/M) cells were separated by adherence onto plastic. […] African green monkey fibroblastoid kidney (Vero) cells highly sensitive to the cytopathic effect of HSV-2 were grown in RPMI medium supplemented with 10% heat inactivated FCS and were used in infectious virus titration assays.
# Macrophage cultures were then infected with HSV-2 (100 CCID50) in the presence of the test compounds. After 2 hrs virus adsorption, the cultures were extensively washed to remove any residual virus particles. Fresh culture medium and compounds, at the indicated concentrations, were then added to the cultures. […] Appropriate positive (infected but not treated M/M) and mock-infected negative (uninfected and untreated M/M) controls were run for each experiment as well. All assays were performed in triplicate. […] Therefore, the potential inhibitory effect of the compounds on the replication of HSV-2 was evaluated 6 days after infection. The amount of infectious virus in the supernatants was determined by a classical limited dilution assay on Vero cell cultures. The titers of produced virus were calculated according to the Reed and Muench method and expressed as 50% tissue culture infective dose per ml (TCID50/ml).
# The inhibition capacity was expressed in % and calculated considering as value 100 being the virus production in virus-infected untreated cultures.
# HSV-1 and HSV-2 = assay: HSV cytopathic effect (CPE) reduction assay, laboratory strains, HEL cell monolayers and PHKs; type: cell-based, herpes simplex virus; details: laboratory HSV strains; HEL cell monolayers and PHKs; read-out: EC50, inhibition of virus-induced cytopathicity
# HSV-2 (G) = assay: Organotypic epithelial raft cultures infected with HSV-2; type: cell-based; details: for activity against HSV replication in rafts compared with tenofovir: HSV-1 and HSV-2, FIGS. 3A and 3B; for concentration resulting in complete protection of the epithelial tissue: HSV-2, data not shown
# Experimental: (§2) For the preparation of epidermal equivalents, a collagen matrix solution was made with collagen mixed on ice with 10-fold concentrated HAM's F12 media, 10-fold reconstitution buffer and Swiss 3T3 J2 fibroblasts. One milliliter of the collagen matrix solution was poured into the wells of 24-well microtiter plates. After gel equilibration with 1 ml of growth medium overnight at 37° C., 2.5×10^5 PHK cells were seeded on the top of the gels and maintained submerged for 24-48 hours. The collagen rafts were raised and placed onto stainless-steel grids at the interface between air and liquid culture medium. The growth medium was a mixture of ⅓ HAM F12 and ⅔ Dulbecco's modified Eagle's medium, with the same supplements as used for the Keratinocyte-SFM. Epithelial cells were allowed to stratify, the medium being replaced every 2-3 days. For the evaluation of the antiviral effects of the compounds in the raft system, two series of rafts were run in parallel, one for histological examination and the other one for quantification of viral production by a plaque reduction assay. Rafts were infected with 5,000 PFU of HSV-1 (KOS) or […] strains after 10 days post-lifting and then the medium was replaced by medium containing different dilutions of the compounds. The growth medium containing the different concentrations of the compounds was changed two days later and 3 days later (after 15 days of differentiation), one series of rafts was fixed in 10% buffered formalin, embedded in paraffin and stained with hematoxylin and eosin for histological evaluation. Another series of rafts was used to quantify virus production. For that purpose, each raft was frozen in 3 ml phosphate buffer saline (PBS) and thawed to release the virus from the infected epithelium. Supernatants were clarified by centrifugation at 1,800 rpm and titrated by a plaque assay in HEL cell cultures. Virus production in each raft was then calculated. Two rafts were used for each drug concentration to determine the effects of the compounds on virus yield.
# HSV-1 (KOS) = assay: Organotypic epithelial raft cultures infected with HSV-1; type: cell-based; details: reference HSV-1 laboratory strain
# Experimental: as §2
# [1] = test system: organotypic raft cultures of keratinocytes; assay: Toxic effects in organotypic epithelial raft cultures; type: cell-based; details: highest concentration, 50 μg/ml
# Experimental: as §2
# HSV-1 (Kos strain) = assay: In vivo antiviral activity in HSV-1-infected NMRI athymic nude mice
# Experimental: (§3) Adult NMRI athymic nude mice (weighing ˜20 g) were scarified on the lumbosacral area over a surface of about 1 cm^2. Mice were inoculated with 5×10^3 PFU of HSV-1 (Kos strain) or 5×10^2 of HSV-2 (G strain) in 50 μL per mouse. […] In each experiment, a group of animals treated with a placebo formulation that was the same as the test formulation without drug was included as a negative control. […] The day of virus inoculation was always considered as day 0. All animal procedures were approved by the K.U. Leuven Animal Care Committee. Development of lesions and mortality were recorded over a one month period. Animals were euthanized when more than 30% loss in body weight or development of paralysis occurred. Survival rates were estimated according to the Kaplan-Meir method and were compared using the log-rank test (Mantel-Cox) test (GraphPad Prism).
# HSV-2 (G strain) = assay: In vivo antiviral activity in HSV-2-infected NMRI athymic nude mice; details: for protection against viral-induced morbidity and mortality: 1% in DMSO (FIG. 5B)
# Experimental: as §3
# [2] = test system: HSV-1 and HSV-2 clinical isolates; assay: organism not typed; type: cell-based, herpes simplex virus; details: for antiherpetic activity against thymidine kinase-deficient strains compared with wild-type: clinical isolates, HEL
# HSV-2 strain G (HSV-2G) = assay: Human ex vivo tonsillar tissue, HSV DNA release by real-time PCR; type: cell-based; details: 33 μg/ml; tissues from two donors; data not shown
# Experimental: For each experimental condition 16 tissue blocks were immersed in 500 μl of a HSV-2 (strain G) suspension for 2 hours at 37° C., washed three times with PBS and then placed on the gelfoam rafts. Tenofovir was added during the infection and replenished at each culture medium change. Herpes simplex viral replication was evaluated by the release of viral DNA into the culture medium as measured by quantitative real-time PCR (17). HIV-1 replication was evaluated by the release of p24 capsid antigen using a bead-based assay (18).
# T2 sequence (P04293 whole entry): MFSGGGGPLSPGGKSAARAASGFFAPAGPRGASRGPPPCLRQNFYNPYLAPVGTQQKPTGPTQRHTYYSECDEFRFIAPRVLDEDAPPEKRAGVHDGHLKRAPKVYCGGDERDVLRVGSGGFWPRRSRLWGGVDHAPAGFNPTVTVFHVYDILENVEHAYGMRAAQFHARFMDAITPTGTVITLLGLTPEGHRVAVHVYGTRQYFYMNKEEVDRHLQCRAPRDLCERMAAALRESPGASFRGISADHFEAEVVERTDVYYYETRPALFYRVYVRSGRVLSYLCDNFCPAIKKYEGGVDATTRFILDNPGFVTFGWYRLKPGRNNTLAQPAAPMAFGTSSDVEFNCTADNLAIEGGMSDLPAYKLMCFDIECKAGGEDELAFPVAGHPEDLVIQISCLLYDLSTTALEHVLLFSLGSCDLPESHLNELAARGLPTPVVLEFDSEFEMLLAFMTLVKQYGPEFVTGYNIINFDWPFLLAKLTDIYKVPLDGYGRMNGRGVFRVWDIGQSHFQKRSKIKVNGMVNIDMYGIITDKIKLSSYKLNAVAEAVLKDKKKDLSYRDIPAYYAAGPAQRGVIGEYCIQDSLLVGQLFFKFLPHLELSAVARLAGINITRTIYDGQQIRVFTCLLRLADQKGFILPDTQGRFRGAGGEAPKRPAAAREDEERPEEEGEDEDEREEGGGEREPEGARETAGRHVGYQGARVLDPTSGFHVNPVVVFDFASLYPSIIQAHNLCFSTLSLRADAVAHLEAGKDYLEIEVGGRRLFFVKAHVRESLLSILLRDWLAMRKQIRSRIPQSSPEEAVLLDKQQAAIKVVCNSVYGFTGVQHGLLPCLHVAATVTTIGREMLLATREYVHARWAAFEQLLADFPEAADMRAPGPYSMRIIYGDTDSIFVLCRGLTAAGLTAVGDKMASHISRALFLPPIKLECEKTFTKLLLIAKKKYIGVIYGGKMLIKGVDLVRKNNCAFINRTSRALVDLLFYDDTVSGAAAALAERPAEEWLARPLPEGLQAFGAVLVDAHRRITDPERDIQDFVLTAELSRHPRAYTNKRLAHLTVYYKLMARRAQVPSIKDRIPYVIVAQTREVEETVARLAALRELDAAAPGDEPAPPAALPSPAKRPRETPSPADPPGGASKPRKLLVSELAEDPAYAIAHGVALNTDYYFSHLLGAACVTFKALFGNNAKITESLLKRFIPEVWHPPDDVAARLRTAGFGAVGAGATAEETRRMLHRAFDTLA
compound,measurement,setting,value
"C[C@H](Cn1cnc2c(N)ncnc21)OCP(=O)(O)OP(=O)(O)OP(=O)(O)O [Tenofovir-DP, (R)-(1-(6-amino-9H-purin-9-yl)propan-2-yloxy)methylphosphonic diphosphoric anhydride]",IC50,HIV-1 RT,4300 nM
same,IC50,HSV-1 DNA polymerase,1300 nM
"Nc1nc2c(ncn2COCCO)c(=O)[nH]1 [acyclovir, 9-(2-hydroxyethoxymethyl)guanine]",virus released in the supernatants and visible cytopathicity,"HSV-2; concentrations equal to, or higher than 0.008 μg/ml",full suppression of virus released in the supernatants and no visible cytopathicity
"Nc1ncnc2c1ncn2CCOCP(=O)(O)O [adefovir, 9-[2-(phosphonylmethoxyethyl)adenine]]",EC50,HSV-1 and HSV-2,3.6 to 13 µg/mL
same,HSV titer in supernatants,HSV-2; 0.4 μg/ml,5.4×10^3 TCID50/ml
same,visible CPE,HSV-2; 0.4 μg/ml,45%
same,HSV titer in supernatants,HSV-2; 1 μg/ml,8.5×10^2 TCID50/ml
same,visible CPE,HSV-2; 1 μg/ml,5%
same,viral particles in the supernatants and visible CPE,HSV-2; drug concentrations between 500 and 5 μg/ml,neither viral particles in the supernatants nor visible CPE were found
same,activity against HSV replication in rafts compared with tenofovir,HSV-2 (G),more active against HSV replication than tenofovir
same,concentration resulting in complete protection of the epithelial tissue,HSV-2 (G),≥ 2 µg/mL
same,concentration giving complete protection from virus-induced cytopathic effect,HSV-1 (KOS),2 µg/mL
same,toxic effects (increase in number of dead cells or alteration of differentiation),[1],No toxic effects
same,survival,HSV-1 (Kos strain); 1% in DMSO,80%
same,skin lesions in mice that died,HSV-1 (Kos strain); 1% in DMSO formulation,died without developing skin lesions
same,survival,"HSV-1 (Kos strain); 1% in gel, data not shown",100%
same,protection against viral-induced morbidity and mortality,HSV-2 (G strain),80%
same,appearance of lesions and subsequent death,HSV-2 (G strain); formulated in the gel at 1%,significant delay in the appearance of lesions and subsequent death
"O=c1[nH]c(=O)n([C@H]2C[C@H](O)[C@@H](CO)O2)cc1/C=C/Br [brivudin, RE)-5-(2-bromovinyl)-1(-D-2′-deoxyribofuranos-1-yl-uracil]",antiherpetic activity against thymidine kinase-deficient strains compared with wild-type,[2],lost their antiherpetic activity
"Nc1ccn(C[C@@H](CO)OCP(=O)(O)O)c(=O)n1 [cidofovir, (S)-1-(3-hydroxy-2-phosphonylmethoxypropyl)cytosine]",EC50,HSV-1 and HSV-2,0.63 to 4.4 µg/mL
same,EC50,"[2]; Fibroblast, read-out: mean EC50 values (range over isolate groups)",0.35 to 0.67 µg/mL
same,activity against HSV replication in rafts compared with tenofovir,HSV-2 (G),more active against HSV replication than tenofovir
same,concentration resulting in complete protection of the epithelial tissue,HSV-2 (G),0.2 µg/mL
same,concentration giving complete protection from virus-induced cytopathic effect,HSV-1 (KOS),≥ 0.5 µg/mL
same,toxic effects (increase in number of dead cells or alteration of differentiation),[1],No toxic effects
same,protection against virus-induced morbidity and mortality,HSV-1 (Kos strain); either the DMSO or the gel formulation,completely protected
same,protection against viral-induced morbidity and mortality,HSV-2 (G strain),100%
same,protection against HSV-2-induced morbidity and mortality,HSV-2 (G strain); formulated in gel,80%
"Nc1nc2c(ncn2COC(CO)CO)c(=O)[nH]1 [ganciclovir, 9-(1,3-dihydroxy-2-propoxymethyl)guanine]",antiherpetic activity against thymidine kinase-deficient strains compared with wild-type,[2],lost their antiherpetic activity
Nc1ccn([C@@H]2CS[C@H](CO)O2)c(=O)n1 [lamivudine],effect on HSV-2G replication compared to untreated donor-matched tissues,HSV-2 strain G (HSV-2G),no effect
"Nc1nc2c(ncn2CCC(CO)CO)c(=O)[nH]1 [penciclovir, 9-(4-hydroxy-3-hydroxymethylbut-1-yl)guanine]",antiherpetic activity against thymidine kinase-deficient strains compared with wild-type,[2],lost their antiherpetic activity

# — patent publication US20130216590A1, “TOPICAL ANTIVIRAL FORMULATIONS FOR PREVENTION OF TRANSMISSION OF HSV-2” (priority 2010, published 2013)
